Measured values as given in PMC7413254 (Nature Communications, 2020).
Like-named read-outs stand apart in the source and are kept apart here.

Legend:
PfCRT^Ecu1110 = PfCRT^Ecu1110 (Plasmodium falciparum, UniProt Q9N623, A220S/I356L/K76T/N326D); test: [3H]CQ uptake into Xenopus oocytes, cis-inhibition by unlabelled solute; assay type: cell-based
Summary of the method: (§1)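 Assay buffer ND96 (10 mM MES, 10 mM Tris-base) held at pH 5.5 to mimic vacuole lumen; uptake measured inward from this acidic medium over 1.5 h at 27.5 °C.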

PfCRT^Dd2 = PfCRT^Dd2 (Plasmodium falciparum, UniProt Q9N623, A220S/I356T/K76T/M74I/N326S/N75E/Q271E/R371I); test: as above; assay type: cell-based
PfCRT^Dd2, sequence (Q9N623 whole entry A220S/I356T/K76T/M74I/N326S/N75E/Q271E/R371I): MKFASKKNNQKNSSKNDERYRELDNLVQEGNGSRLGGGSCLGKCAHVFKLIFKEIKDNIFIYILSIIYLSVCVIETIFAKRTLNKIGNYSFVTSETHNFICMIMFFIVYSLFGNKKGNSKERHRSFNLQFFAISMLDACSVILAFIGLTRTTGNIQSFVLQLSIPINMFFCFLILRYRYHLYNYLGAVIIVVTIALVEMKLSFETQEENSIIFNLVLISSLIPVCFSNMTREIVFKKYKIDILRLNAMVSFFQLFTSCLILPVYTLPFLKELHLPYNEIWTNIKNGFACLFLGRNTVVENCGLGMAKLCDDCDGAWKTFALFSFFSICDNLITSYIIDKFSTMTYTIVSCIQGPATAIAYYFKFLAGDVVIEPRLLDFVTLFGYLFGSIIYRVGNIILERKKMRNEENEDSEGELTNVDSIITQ
Summary of the method: as §1

PfCRT = test: Test of solutes as potential co-substrates for influx of VF-6 via PfCRT into the oocyte; assay type: cell-based, Plasmodium falciparum; parameters: key: X: Compounds that have been tested as potential co-substrates but are not required for influx of VF-6 via PfCRT into the oocyte; conditions: X = tested
PfCRT^3D7 = PfCRT^3D7 (Plasmodium falciparum, UniProt Q8IBZ9); test: cell-based; assay type: cell-based; conditions: total [3H]CQ transport; for inhibition at 500 µM: [test solute] = 0.5 mM; for inhibition at 1000 µM: [test solute] = 1 mM; for inhibition at 2000 µM: [test solute] = 2 mM
PfCRT^3D7, sequence (Q8IBZ9 59-398): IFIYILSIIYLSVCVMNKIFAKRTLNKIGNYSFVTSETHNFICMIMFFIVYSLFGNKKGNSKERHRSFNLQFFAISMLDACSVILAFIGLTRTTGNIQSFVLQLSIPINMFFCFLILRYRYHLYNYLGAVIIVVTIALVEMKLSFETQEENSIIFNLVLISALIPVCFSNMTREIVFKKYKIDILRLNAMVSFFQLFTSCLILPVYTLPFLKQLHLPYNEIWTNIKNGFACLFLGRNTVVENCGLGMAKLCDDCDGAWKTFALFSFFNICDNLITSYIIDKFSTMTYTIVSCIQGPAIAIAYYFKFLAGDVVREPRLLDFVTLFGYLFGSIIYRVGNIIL
Summary of the method: as §1

non-expressing oocytes = test: cells; assay type: cell-based, Xenopus laevis; conditions: Xenopus laevis, total [3H]CQ transport; for inhibition at 500 µM: [test solute] = 0.5 mM; for inhibition at 1000 µM: [test solute] = 1 mM; for inhibition at 2000 µM: [test solute] = 2 mM
Summary of the method: as §1

[1] = read-out: Uptake of [3H]CQ (% PfCRTDd2 control), cis-inhibition, PfCRTEcu1110, SEM
[2] = read-out: Uptake of [3H]CQ (% PfCRTEcu1110 control), cis-inhibition
[3] = read-out: [3H]CQ transport (% PfCRTEcu1110 control), cis-inhibition, PfCRTEcu1110, SEM
[4] = read-out: PfCRT-mediated [3H]CQ transport, cis-inhibition (% PfCRTDd2 control)
[5] = read-out: Uptake of [3H]CQ (% PfCRTDd2 control), cis-inhibition
[6] = read-out: Uptake of [3H]CQ (% PfCRTDd2 control), cis-inhibition, PfCRTDd2, SEM
[7] = read-out: [3H]CQ transport (% PfCRTDd2 control), cis-inhibition, PfCRTDd2, SEM
[8] = PfCRT3D7 oocytes, normalised to the oocyte type control, read-out: Uptake of [3H]CQ (% PfCRT3D7 control), cis-inhibition
[9] = mean ± SEM, SEM, read-out: Uptake of [3H]CQ (% PfCRTDd2 control), cis-inhibition, PfCRT3D7
[10] = Oocyte, mean ± SEM, SEM, read-out: Uptake of [3H]CQ (% PfCRTDd2 control), cis-inhibition, non-expressing oocytes
[11] = non-expressing oocytes, normalised to the oocyte type control, read-out: Uptake of [3H]CQ (% non-expressing oocyte control), cis-inhibition

PfCRT^Ecu1110, sequence (Q9N623 whole entry A220S/I356L/K76T/N326D): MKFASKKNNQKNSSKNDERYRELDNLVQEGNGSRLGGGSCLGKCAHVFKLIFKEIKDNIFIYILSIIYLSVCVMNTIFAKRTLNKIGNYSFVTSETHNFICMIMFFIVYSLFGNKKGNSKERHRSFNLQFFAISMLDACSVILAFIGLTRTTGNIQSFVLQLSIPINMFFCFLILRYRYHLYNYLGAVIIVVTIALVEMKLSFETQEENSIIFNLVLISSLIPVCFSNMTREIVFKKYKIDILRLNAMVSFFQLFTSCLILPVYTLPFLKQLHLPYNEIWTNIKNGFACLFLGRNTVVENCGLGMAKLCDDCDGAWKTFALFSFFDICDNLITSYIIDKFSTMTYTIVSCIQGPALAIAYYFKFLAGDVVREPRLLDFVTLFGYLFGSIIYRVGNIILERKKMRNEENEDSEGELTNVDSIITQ

## CC(C)C[C@H](N)C(=O)O [L-leucine]
PfCRT^Ecu1110; [1]
  inhibition at 1000 µM: 32 ± 1.3%
  inhibition at 2000 µM: 33 ± 1.5%
PfCRT^Ecu1110; [2]
  inhibition at 500 µM: 102 ± 4.2%
  inhibition at 1000 µM: 98 ± 4.2%
  inhibition at 2000 µM: 100 ± 3.2%
PfCRT^Ecu1110; [3]
  inhibition at 500 µM: 30 ± 1.5%
  inhibition at 1000 µM: 29 ± 0.6%
  inhibition at 2000 µM: 30 ± 0.7%
PfCRT^Dd2; [4]
  inhibition at 500 µM: 98 ± 4.7%
  inhibition at 1000 µM: 96 ± 4.2%
  inhibition at 2000 µM: 98 ± 4.7%
PfCRT^Dd2; [5]
  inhibition at 500 µM: 100 ± 3.8%
  inhibition at 1000 µM: 98 ± 3.1%
  inhibition at 2000 µM: 100 ± 1.9%
PfCRT^Dd2; [6]
  inhibition at 500 µM: 100 ± 3.8%
  inhibition at 1000 µM: 98 ± 3.1%
  inhibition at 2000 µM: 100 ± 1.9%
PfCRT^Dd2; [7]
  inhibition at 500 µM: 98 ± 4.7%
  inhibition at 2000 µM: 98 ± 4.7%
PfCRT
  Tested as potential co-substrate but not required for influx of VF-6 via PfCRT into the oocyte: X
PfCRT^3D7; [8]
  inhibition at 500 µM: 98 ± 3.6%
  inhibition at 1000 µM: 100 ± 4.7%
  inhibition at 2000 µM: 99 ± 3.6%
PfCRT^3D7; [9]
  inhibition at 500 µM: 3.2 ± 0.08%
  inhibition at 1000 µM: 3.1 ± 0.08%
  inhibition at 2000 µM: 3.8 ± 0.05%
non-expressing oocytes; [10]
  inhibition at 500 µM: 3.2 ± 0.08%
  inhibition at 1000 µM: 2.8 ± 0.07%
  inhibition at 2000 µM: 2.9 ± 0.04%
non-expressing oocytes; [11]
  inhibition at 500 µM: 100 ± 3.7%
  inhibition at 1000 µM: 99 ± 4.6%
  inhibition at 2000 µM: 99 ± 5.7%
